Marks after values point to notes of the source that are not given here. Blank lines part the entries; values can stand above or below the compound they belong to.
How the values were obtained:
[1] = test system: human epidermoid carcinoma cell line A-431; test: Tight-junction function, lucifer yellow transmittance (Experiments 2 and 8); type: cell-based; conditions: control = 100%
Source text: A human epidermoid carcinoma cell line A-431 was suspended in a media, supplemented with any of the test substances disclosed in Table 4 and having respective concentrations as indicated in the table, to give a cell concentration of 1×10^5 cells/mL, and each cell suspension was placed in an insert cup for a 12-well culture plate by two milliliters per well, followed by culturing the cells until reaching a confluent state through over the bottom surface of each well. The inner and the outer cup volumes were adjusted to give two milliliters while checking both the liquid levels of the cups were constant, and lucifer yellow as a model for permeating substance, commercialized by Life Technologies Corporation, CA, USA, was added to each inner cup to give a final concentration of 100 μM. Thereafter, the fluorescent intensities of lucifer yellow in the culture media in both the inner and the outer cups were measured, followed by calculating the percentage of the fluorescent intensity of the outer cup against that of the sum of the outer and the inner cups for use as a transmittance of lucifer yellow with the following equation. Equation: Transmittance of lucifer yellow (%)={(Absorbance of a liquid outside of an insert cup)/[(Absorbance of a liquid inside of the insert cup)+(Absorbance of the liquid outside of the insert cup)]}×100
There was provided a control system prepared similarly as above except for not adding any of the test substances, and the transmittance of lucifer yellow was regarded as 100% for evaluating the reduction of transmittance due to the reinforcement of the function of tight junction, based on the following equation. Equation: Relative transmittance (Relative percentage (%)) of lucifer yellow=[(Transmittance of a sample with any one of test substances)/(Transmittance of control)]×100
The experiment was repeated three times, and the data was subjected to the Dunnett's multiple comparisons with control. The symbol “*” means a level of significance of p<0.01.
Except for adding the test substances listed in Table 11 at respective concentrations shown in the table, experiments were respectively conducted in accordance with the methods in Experiment 2 disclosed in the specification to examine the effect of the combination use with ethylenediaminetetraacetate used as a preservative for cosmetics on the action of reinforcing the function of tight junction by sodium adenosine N1-oxide 5′-phosphate. A control system was provided and similarly treated as above except for not adding any test substance. The reduction rate of relative transmittance of lucifer yellow against that of control based on the following equation. Equation: Reduction rate of relative transmittance of lucifer yellow (%)=100−[(Transmittance of a sample with any one of test substances)/(Transmittance of control)]×100

[2] = test system: matrix metalloprotease-1; test: Matrix metalloprotease-1 production of NHDF after IL-1β, ELISA (Experiments 5 and 9); type: cell-based, human; conditions: for Production level of matrix metalloprotease-1 (%): human IL-1β 1 ng/ml, control = 100%
Description: Normal human dermal fibroblasts (NHDF), which had been suspended in a Dulbecco's Modified Eagle Medium supplemented with 10% fetal calf serum to give a concentration of 2.5×10^5 cells/mL, were placed in 96-well microplates by 0.1 mL/well and cultured until reaching a confluent state over the bottom of each well. Thereafter, the medium in each well was replaced with a fresh serum-free culture medium and culture for another 24 hours, added with any one of the test substances in Table 6 at each concentration shown in the table, and cultured for additional 24 hours. Then, the resulting cell cultures were added with human IL-1β to give a final concentration of 1 ng/ml, followed by culturing the cells for another 24 hours. After completion of the culture, matrix metalloprotease-1 in the supernatant in each well was detected with an enzyme-linked immuno sorbent assay (ELISA), commercialized by R & D Systems, Inc., MN, USA, developed coloration with tetramethylbenzidine, and measured for absorption at a wavelength of 450 nm. A control system was provided similarly as above except for not adding any test substance, and determined for the activity of matrix metalloprotease-1 similarly as in the above to be regarded as 100%. The production level of matrix metalloprotease-1 for each test substance was comparatively evaluated based on the following equation. Equation: Production level of matrix metalloprotease-1 (relative value (%))=[(Absorbance of a sample with any one of test substances)/(Absorbance of control)]×100
The experiment was repeated three times, and the data were compared to that of control with the Dunnett's multiple comparisons test. The symbol “*” means a level of significance of p<0.01.
Except for adding the test substances listed in Table 12 at respective concentrations shown in the table, experiments were respectively conducted in accordance with the methods in Experiment 5 disclosed in the specification to examine the effect of the combination use with ascorbic acid 2-glucoside used as a skin whitener in cosmetics on the action of anti-wrinkles by analogues of adenosine N1-oxide 5′-phosphate. A control system was provided and similarly treated as above except for not adding any test substance. The reduction rate of the production level of matrix metalloprotease-1 against that of control based on the following equation. Equation: Reduction rate of the production level of matrix metalloprotease−1(%)=100−[(Absorbance of a sample with any one of test substances)/(Absorbance of control)]×100

[3] = test system: 3T3; test: TG432: In vitro 3T3 NRU Phototoxicity Test; type: cell-based
Source text: Based on this, external dermal agent containing any of adenosine N1-oxide 5′-phosphate, analogues thereof, and their salts can be said to be safe.

[4] = Photostability under fluorescent lamp, HPLC residual percentage (Experiment 10); type: physicochemical; conditions: fluorescent lamp about 4,000 lux, 28° C.
Description: To 25 mg of each of the test substances in Table 13 was added each of Mcllvain buffers adjusted to different pHs to give a total volume of 50 mL and distributed to transparent glass screw bottles (5 mL) with plastic screw caps equal to the number of the test substances by 2.0 mL. Under a fluorescent lamp with about 4,000 lux at 28° C., the glass screw bottles were allowed to lay along. Sodium adenosine N1-oxide 5′-phosphate and 5′-glucosyl adenosine N1-oxide were respectively analyzed on HPLC at the initiation of the test and at eight weeks after initiating the experiment, and at the initiation of the test and at two weeks intervals up to eight weeks after the initiation, followed by taking out one of the bottles for HPLC analysis. The analysis was repeated three times and the average residual percentage of each test substance was calculated based on the area ratio against the peak area for each test substance upon HPLC chromatogram at the initiation of the experiment. […] Equation: Residual percentage (%) of test substance=[(Average peak area after a prescribed time lapse at respective pHs for each test substance)/(Average peak area at the initiation of experiment at respective pHs for each test substance)]×100

[5] = pH 4 to 5, at the initiation of experiment
[6] = pH 6 to 7, at the initiation of experiment
[7] = pH 8 to 9, at the initiation of experiment

Compound: 3′-α-Glucosyladenosine [reference compound]
Relative transmittance of lucifer yellow (%) ([1]; 200 μM): 94.5%
Relative transmittance of lucifer yellow (%) ([1]; 400 μM): 94.8%
Production level of matrix metalloprotease-1 (%) ([2]; 200 μM): 86.6%
Production level of matrix metalloprotease-1 (%) ([2]; 400 μM): 87.1%
Production level of matrix metalloprotease-1 (%) ([2]; 800 μM): 98.7%

Compound: 3′-α-glucosyl adenosine N1-oxide [3′-α-Glucosyladenosine N1-oxide]
Relative transmittance of lucifer yellow (%) ([1]; 200 μM): 112.3%
Relative transmittance of lucifer yellow (%) ([1]; 400 μM): 102.3%
Production level of matrix metalloprotease-1 (%) ([2]; 200 μM): 78.7* %
Production level of matrix metalloprotease-1 (%) ([2]; 400 μM): 75.5* %
Production level of matrix metalloprotease-1 (%) ([2]; 800 μM): 68.6* %
optical toxicity [3]: no optical toxicity

Compound: 5′-α-Glucosyladenosine [reference compound]
Relative transmittance of lucifer yellow (%) ([1]; 200 μM): 94.2%
Relative transmittance of lucifer yellow (%) ([1]; 400 μM): 82.3%
Production level of matrix metalloprotease-1 (%) ([2]; 200 μM): 89.9%
Production level of matrix metalloprotease-1 (%) ([2]; 400 μM): 94.3%
Production level of matrix metalloprotease-1 (%) ([2]; 800 μM): 87.7%

Residual percentage (%) [4, 5]: 100.0%
Residual percentage (%) ([4]; pH 4 to 5, eight weeks): 9.8%
Residual percentage (%) ([4]; pH 4 to 5, eight weeks, listed as 5′-glucosyl adenosine N1-oxide): about 10%
Residual percentage (%) ([4]; pH 4 to 5, four weeks): 27.3%
Residual percentage (%) ([4]; pH 4 to 5, six weeks): 9.7%
Residual percentage (%) ([4]; pH 4 to 5, two weeks): 51.7%
Residual percentage (%) [4, 6]: 100.0%
Residual percentage (%) ([4]; pH 6 to 7, eight weeks): 34.3%
Residual percentage (%) ([4]; pH 6 to 7, four weeks): 57.7%
Residual percentage (%) ([4]; pH 6 to 7, six weeks): 40.8%
Residual percentage (%) ([4]; pH 6 to 7, two weeks): 79.1%
Residual percentage (%) [4, 7]: 100.0%
Residual percentage (%) ([4]; pH 8 to 9, eight weeks): 24.0%
Residual percentage (%) ([4]; pH 8 to 9, four weeks): 47.8%
Residual percentage (%) ([4]; pH 8 to 9, six weeks): 35.4%
Residual percentage (%) ([4]; pH 8 to 9, two weeks): 70.7%
Compound: 5′-α-glucosyl adenosine N1-oxide [5′-α-Glucosyladenosine N1-oxide]
Relative transmittance of lucifer yellow (%) ([1]; 200 μM): 97.1%
Relative transmittance of lucifer yellow (%) ([1]; 400 μM): 96.8%
Production level of matrix metalloprotease-1 (%) ([2]; 200 μM): 85.4* %
Production level of matrix metalloprotease-1 (%) ([2]; 400 μM): 83.6* %
Production level of matrix metalloprotease-1 (%) ([2]; 800 μM): 77.0* %
optical toxicity [3]: no optical toxicity

Compound: Nc1ncnc2c1ncn2[C@@H]1O[C@H](COP(=O)(O)O)[C@@H](O)[C@H]1O [Adenosine 5′-phosphate, reference compound]
Relative transmittance of lucifer yellow (%) ([1]; 200 μM): 90.6%
Relative transmittance of lucifer yellow (%) ([1]; 400 μM): 81.6%
Production level of matrix metalloprotease-1 (%) ([2]; 200 μM): 99.5%
Production level of matrix metalloprotease-1 (%) ([2]; 400 μM): 93.3%
Production level of matrix metalloprotease-1 (%) ([2]; 800 μM): 90.3%

Residual percentage (%) [4, 5]: 100.0%
Residual percentage (%) ([4]; pH 4 to 5, eight weeks): 24.6%
Residual percentage (%) ([4]; pH 4 to 5, eight weeks, listed as adenosine N1-oxide): about 25%
Residual percentage (%) ([4]; pH 4 to 5, four weeks): 47.2%
Residual percentage (%) ([4]; pH 4 to 5, six weeks): 25.2%
Residual percentage (%) ([4]; pH 4 to 5, two weeks): 68.8%
Residual percentage (%) [4, 6]: 100.0%
Residual percentage (%) ([4]; pH 6 to 7, eight weeks): 66.2%
Residual percentage (%) ([4]; pH 6 to 7, four weeks): 81.6%
Residual percentage (%) ([4]; pH 6 to 7, six weeks): 71.3%
Residual percentage (%) ([4]; pH 6 to 7, two weeks): 90.6%
Residual percentage (%) [4, 7]: 100.0%
Residual percentage (%) ([4]; pH 8 to 9, eight weeks): 63.1%
Residual percentage (%) ([4]; pH 8 to 9, four weeks): 77.2%
Residual percentage (%) ([4]; pH 8 to 9, six weeks): 68.2%
Residual percentage (%) ([4]; pH 8 to 9, two weeks): 83.7%
Compound: Nc1c2ncn([C@@H]3O[C@H](CO)[C@@H](O)[C@H]3O)c2nc[n+]1[O-] [Adenosine N1-oxide, adenosine N1-oxide]
Relative transmittance of lucifer yellow (%) ([1]; 10 μM): 71.6* %
Relative transmittance of lucifer yellow (%) ([1]; 20 μM): 71.3* %
Production level of matrix metalloprotease-1 (%) ([2]; 5 μM): 86.6%
Production level of matrix metalloprotease-1 (%) ([2]; 10 μM): 77.6* %
Production level of matrix metalloprotease-1 (%) ([2]; 20 μM): 31.9* %
inhibition at 2 µM ([2]; Homo sapiens, NHDF, 2 μM, single use, reduction against control, read-out: Reduction rate of the production level of matrix metalloprotease-1 activity (%)): 10%
inhibition at 5 µM ([2]; Homo sapiens, NHDF, 5 μM, single use, reduction against control, read-out: Reduction rate of the production level of matrix metalloprotease-1 activity (%)): 13.4%
inhibition at 10 µM ([2]; Homo sapiens, NHDF, 10 μM, single use, reduction against control, read-out: Reduction rate of the production level of matrix metalloprotease-1 activity (%)): 22.4%
optical toxicity [3]: no optical toxicity

Compound: Nc1ncnc2c1ncn2[C@@H]1O[C@H](CO)[C@@H](O)[C@H]1O [Adenosine, reference compound]
Relative transmittance of lucifer yellow (%) ([1]; 200 μM): 77.1* %
Relative transmittance of lucifer yellow (%) ([1]; 400 μM): 67.4* %
Production level of matrix metalloprotease-1 (%) ([2]; 200 μM): 88.7%
Production level of matrix metalloprotease-1 (%) ([2]; 400 μM): 93.4%
Production level of matrix metalloprotease-1 (%) ([2]; 800 μM): 85.6%

From patent US10071042B2, “External dermatological agent for anti-ageing” (Hayashibara Co., Ltd., priority 2014, dated 2018)
